# How the values were obtained:
# Format in all cases: functional
# [1] = tested on: Mus musculus; assay: In vivo antitumor activity as percent tumor response at dose of 0.3 mg/kg, 3 hours post injection of SMT-F tumor in DBA/2 mice at day 1-2
# [2] = tested on: Mus musculus; assay: In vivo antitumor activity as percent tumor response at dose of 0.3 mg/kg, 3 hours post injection of SMT-F tumor in DBA/2 mice at day 30
# [3] = tested on: Mus musculus; assay: In vivo antitumor activity as percent tumor response at dose of 0.3 mg/kg, 3 hours post injection of SMT-F tumor in DBA/2 mice at day 7
# [4] = tested on: Mus musculus; assay: In vivo antitumor activity as percent tumor response at dose of 5.0 mg/kg, 24 hours post injection of SMT-F tumor in DBA/2 mice at day 7
# [5] = tested on: Mus musculus; assay: In vivo antitumor activity as percent tumor response at dose of 5.0 mg/kg, 24 hours post injection of SMT-F tumor in DBA/2 mice at day 30
# [6] = tested on: Mus musculus; assay: In vivo antitumor activity as percent tumor response at dose of 5.0 mg/kg, 24 hours post injection of SMT-F tumor in DBA/2 mice at day 1-2
# [7] = tested on: Mus musculus; assay: In vivo antitumor activity as percent tumor response at dose of 2.5 mg/kg, 3 hours post injection of SMT-F tumor in DBA/2 mice at day 1-2
# [8] = tested on: Mus musculus; assay: In vivo antitumor activity as percent tumor response at dose of 2.5 mg/kg, 24 hours post injection of SMT-F tumor in DBA/2 mice at day 1-2
# [9] = tested on: Mus musculus; assay: In vivo antitumor activity as percent tumor response at dose of 2.5 mg/kg, 3 hours post injection of SMT-F tumor in DBA/2 mice at day 30
# [10] = tested on: Mus musculus; assay: In vivo antitumor activity as percent tumor response at dose of 2.5 mg/kg, 24 hours post injection of SMT-F tumor in DBA/2 mice at day 30
# [11] = tested on: Mus musculus; assay: In vivo antitumor activity as percent tumor response at dose of 2.5 mg/kg 3h between injection and light treatment in mice at day 7
# [12] = tested on: Mus musculus; assay: In vivo antitumor activity as percent tumor response at dose of 2.5 mg/kg, 24 hours post injection of SMT-F tumor in DBA/2 mice at day 7
# [13] = tested on: Mus musculus; assay: In vivo antitumor activity as percent tumor response at dose of 0.3 mg/kg, 24 hours post injection of SMT-F tumor in DBA/2 mice at day 7
# [14] = tested on: Mus musculus; assay: In vivo antitumor activity as percent tumor response at dose of 0.3 mg/kg, 24 hours post injection of SMT-F tumor in DBA/2 mice at day 1-2
# [15] = tested on: Mus musculus; assay: In vivo antitumor activity as percent tumor response at dose of 0.3 mg/kg, 24 hours post injection of SMT-F tumor in DBA/2 mice at day 30
# [16] = tested on: Mus musculus; assay: In vivo antitumor activity as percent tumor response at dose of 1.0 mg/kg, 24 hours post injection of SMT-F tumor in DBA/2 mice at day 1-2
# [17] = tested on: Mus musculus; assay: In vivo antitumor activity as percent tumor response at dose of 1.0 mg/kg, 24 hours post injection of SMT-F tumor in DBA/2 mice at day 7
# [18] = tested on: Mus musculus; assay: In vivo antitumor activity as percent tumor response at dose of 1.0 mg/kg, 24 hours post injection of SMT-F tumor in DBA/2 mice at day 30
# [19] = tested on: Mus musculus; assay: In vivo antitumor activity as percent tumor response at dose of 0.25 mg/kg, 24 hours post injection of SMT-F tumor in DBA/2 mice at day 30
# [20] = tested on: Mus musculus; assay: In vivo antitumor activity as percent tumor response at dose of 0.25 mg/kg, 24 hours post injection of SMT-F tumor in DBA/2 mice at day 7
# [21] = tested on: Mus musculus; assay: In vivo antitumor activity as percent tumor response at dose of 0.25 mg/kg, 24 hours post injection of SMT-F tumor in DBA/2 mice at day 1-2
# [22] = tested on: Mus musculus; assay: In vivo antitumor activity as percent tumor response at dose of 5.0 mg/kg, 3 hours post injection of SMT-F tumor in DBA/2 mice at day 7
# [23] = tested on: Mus musculus; assay: In vivo antitumor activity as percent tumor response at dose of 5.0 mg/kg, 3 hours post injection of SMT-F tumor in DBA/2 mice at day 1-2
# [24] = tested on: Mus musculus; assay: In vivo antitumor activity as percent tumor response at dose of 5.0 mg/kg, 3 hours post injection of SMT-F tumor in DBA/2 mice at day 30
SMILES,Response [1] [%],Response [2] [%],Response [3] [%],Response [4] [%],Response [5] [%],Response [6] [%],Response [13] [%],Response [14] [%],Response [15] [%],further results
CCc1c(C)c2cc3nc(c4c5nc(cc6[nH]c(cc1[nH]2)[C@@](C)(O)[C@]6(O)CC)C(C)=C5C(=O)C4)[C@@H](CCC(=O)OC)[C@@H]3C,0,0,0,–,–,–,–,–,–,–
CCCCCCOC(C)c1c(C)c2cc3nc(c4c5nc(cc6[nH]c(cc1[nH]2)[C@@](C)(O)[C@]6(O)CC)C(C)=C5C(=O)C4)[C@@H](CCC(=O)OC)[C@@H]3C (stereo partly drawn),0,0,0,–,–,–,–,–,–,–
CCc1c(C)c2cc3[nH]c(cc4nc(c(CC(=O)OC)c5nc(cc1[nH]2)C(C)=C5C(=O)OC)[C@@H](CCC(=O)OC)[C@@H]4C)c(C)c3C=O,–,–,–,0,0,0,–,–,–,–
CCc1c(C)c2cc3[nH]c(cc4nc(c5c6nc(cc1[nH]2)C(C)=C6C(=O)C5)[C@@H](CCC(=O)OC)[C@@H]4C)c(C)c3C=O,–,–,–,–,–,–,–,–,–,Response [7]: 67%; Response [8]: 0%; Response [9]: 0%; Response [10]: 0%; Response [11]: 67%; Response [12]: 0%
CCCCCCOCC1=C(C)c2cc3nc(c4c5[nH]c(cc6[nH]c(cc1n2)c(C)c6CC)c(C)c5C(=O)C4)[C@@H](CCC(=O)OC)[C@@H]3C,–,–,–,–,–,–,33,100,0,–
CCc1c(C)c2cc3[nH]c(cc4nc(c5c6nc(cc1[nH]2)C(C)=C6C(=O)[C@@H]5C(=O)OC)[C@@H](CCC(=O)OC)[C@@H]4C)c(C)c3C=O,–,–,–,60,0,80,–,–,–,–
CCCCCCOC(C)C1=C(C)c2cc3nc(c(CC(=O)OC)c4[nH]c(cc5[nH]c(cc1n2)c(C)c5CC)c(C)c4C(=O)OC)[C@@H](CCC(=O)OC)[C@@H]3C (stereo partly drawn),–,–,–,–,–,–,0,100,0,Response [16]: 100%; Response [17]: 75%; Response [18]: 0%
CCCCCCOC(C)C1=C(C)c2cc3nc(c4c5[nH]c(cc6[nH]c(cc1n2)c(C)c6CC)c(C)c5C(=O)C4)[C@@H](CCC(=O)OC)[C@@H]3C (stereo partly drawn),–,–,–,–,–,–,100,100,50,Response [19]: 35%; Response [20]: 85%; Response [21]: 100%
CCCCCCOC(C)C1=C(C)c2cc3nc(c4c5[nH]c(cc6[nH]c(cc1n2)c(C)c6CC)c(C)c5C(=O)[C@@H]4C(=O)OC)[C@@H](CCC(=O)OC)[C@@H]3C (stereo partly drawn),100,20,100,–,–,–,90,100,0,Response [16]: 100%; Response [17]: 100%; Response [18]: 50%
C=Cc1c(C)c2cc3nc(c4c5nc(cc6[nH]c(cc1[nH]2)c(C)c6CC)C(C)=C5C(=S)C4)[C@@H](CCC(=O)OC)[C@@H]3C,–,–,–,0,0,0,–,–,–,Response [22]: 100%; Response [23]: 100%; Response [24]: 80%
